Test results reported in patent US9675663B2, “TUSC2 therapies” (Board of Regents, The University of Texas System, priority 2011, dated 2017).
“And” between values parts separate entries of the source, which are not always exact repeats. Equal entries are not always repeated. Blank lines part the entries; values can stand above or below the compound they belong to.

Columns and labels:
[1] = test system: HCC366 and H322 cells; experiment: Effect of AMPK inhibitor on FUS1/MK2206-induced cell death; format: cell-based, human; conditions: AMPK inhibitor present
Method: FIG. 23: The effect of AMPK inhibitor on FUS1/MK2206-induced cell death. Cell survival was assessed in HCC366 and H322 cells treated with FUS1 nanoparticles and various concentrations of MK2206 in the presence or absence of AMPK inhibitor Compound C. Graphs show relative cell survival (y-axis) at various concentrations of MK2206 (x-axis) with and without AMPK inhibitor as indicated.
(§1) To better determine the mechanism for synergistic FUS1/MK2206 effect, treated cells were subjected to an immunoblots to assess the phosphorylation status of cell signaling molecules. […] Thus, FUS1-increased sensitivity to MK2206 is associated with the down-regulation of AKT and mTOR phosphorylation and up-regulation of AMPK phosphorylation. In view of these studies a proposed FUS/MK2206 signaling pathway is provided as FIG. 25.

[2] = test system: HCC366; experiment: IC50 of MK2206 alone or with FUS1-nanoparticles; format: cell-based; conditions: Homo sapiens
Method: (§2) FIG. 17: Single drug treatment of MK2206 on lung cancer cells. […] Cell lines that were further analyzed are indicated by arrows.
(§3) FIG. 18: FUS1/MK2206-induced cell death in lung cancer cell lines. Graphs show the relative survival rates for the indicated cancer cells (y-axis) when contacted with empty vector (EV) or FUS1 nanoparticles in the presence of increasing concentrations of MK2206 (x-axis).
(§4) Single drug treatment with AKT inhibitor MK2206 was also assessed in a wide range of lung cancer cell lines. Cell lines indicated by arrows (H322, A549, H2887 and […]) were subjected to further analysis. First, each of the cell lines was treated with FUS1 nanoparticles or empty vector at increasing concentrations of MK2206. […] The effect of the combined therapy was especially evident in H2887, H322 and HCC366 cells. Next, the ability of combined FUS1/MK2206 treatment to inhibit colony formation was studied in the cell lines. […] Thus, FUS1 treatment is able to sensitize cancer cells to the effects of kinase inhibitors such as the AKT inhibitor MK2206. This effect was quantified relative to each studied cell line below in Table 13.

[3] = test system: H322; experiment: IC50 of MK2206 alone or with FUS1-nanoparticles; format: cell-based; conditions: Homo sapiens, NCI-H322
Method: as §2, §3, §4

[4] = test system: H2887; experiment: IC50 of MK2206 alone or with FUS1-nanoparticles; format: cell-based; conditions: Homo sapiens, NCI-H2887
Method: as §2, §3, §4

[5] = test system: A549; experiment: IC50 of MK2206 alone or with FUS1-nanoparticles; format: cell-based; conditions: Homo sapiens
Method: as §2, §3, §4

[6] = test system: phosphorylated AMPK, AKT, mTOR and S6K; experiment: Immunoblot of phosphorylated signaling proteins in FUS1/MK2206-treated cell lines; format: cell-based, human; conditions: addition of MK2206; HCC366 or H322 cells
Method: FIG. 21: Immunoblot of p-AKT, p-AMPK and p-mTOR in FUS1/MK2206-treated cell lines. Phosphorylation specific antibodies were used to assess expression of phosphorylated AMPK, AKT, mTOR and S6K in HCC366 or H322 cells. Cells were treated with empty vector (EV); FUS1 nanoparticles (FUS1); MK2206; empty vector+MK2206 (EV+MK); or FUS1 nanoparticles+MK2206 (FUS1+MK) prior to assessment for phosphorylated protein expression. Immunoblot of β-actin was used as a loading control.
as §1

[7] = test system: A549 cells; experiment: Colony formation assay; format: cell-based, human; conditions: for Colony formation normalized on EV: EV + PBS = 100%; for Colony formation, average / Colony formation, groups 1-3 (replicates): number after + = μg Erlotinib; for Colony formation normalized on pc301: pc301PBS = 100%
Method: FIG. 8: Fus1 and Erlotinib combined treatment effect on colony formation of A549 cells. […] “EV” indicates empty vector; Fus1 indicates a vector containing Fus1; numerical values following “+” indicate μg of Erlotinib; PBS indicates Phosphate-Buffer Saline control.
(§5) To assess cooperative effects of tumor growth data between FUS-1 (FUST) and Erlotinib (Erlo) a Bayesian Bootstrapping analysis approach was used. The Pr(min(μF, μE)<μC|(data) was calculated i.e., the posterior probability that the minimum of the two posterior mean colony formation for FUS-1 alone, μF, or Erlotinib alone, μE, […] the mean posterior colony formation for the combination μC. This probability calculates the likelihood that average colony formation in the combination arm will be less than the minimum of the two single agent arms. Cooperative effects are shown if this posterior probability is large. Thus, the probability of cooperative effect ranges from 0.0 to 1.0 where 0 means no chance of a true cooperative effect given the data observed while 1 means 100% certainty of a cooperative effect given the data observed. The Statistical software S-PLUS 8.0 were used for all the analyses.

[8] = test system: H1299 cells; experiment: Colony formation assay; format: cell-based, human; parameters: Colony formation, groups 1-3 (replicates) / Colony formation, average: unit not given here; conditions: for Colony formation normalized on EV: EV + PBS = 100%; for Colony formation, average / Colony formation, groups 1-3 (replicates): number after + = μg Erlotinib; for Colony formation normalized on pc301: pc301PBS = 100%
Method: FIG. 6: Fus1 and Erlotinib combined treatment effect on colony formation of H1299 cells. […] “EV” indicates empty vector; Fus1 indicates a vector containing Fus1; numerical values following “erlo” indicate μg of Erlotinib; PBS indicates Phosphate-Buffer Saline control. […]
as §5

[9] = test system: H460 cells; experiment: Colony formation assay; format: cell-based, human; conditions: for Colony formation normalized on EV: EV + PBS = 100%; for Colony formation, average / Colony formation, groups 1-3 (replicates): number after + = μg Erlotinib
Method: FIG. 9: Fus1 and Erlotinib combined treatment effect on colony formation of H460 cells. […] “EV” indicates empty vector; Fus1 indicates a vector containing Fus1; numerical values following “+” indicate μg of Erlotinib; PBS indicates Phosphate-Buffer Saline control.
as §5

[10] = test system: H322 cells; experiment: Colony formation assay; format: cell-based, human; parameters: Colony formation, groups 1-3 (replicates) / Colony formation, average: unit not given here; conditions: for Colony formation normalized on EV: EV + PBS = 100%; for Colony formation, average / Colony formation, groups 1-3 (replicates): number after + = μg Erlotinib; for Colony formation normalized on pc301: pc301PBS = 100%
Method: FIG. 7: Fus1 and Erlotinib combined treatment effect on colony formation of H322 cells. […] “EV” indicates empty vector; Fus1 indicates a vector containing Fus1; numerical values following “+” indicate μg of Erlotinib; PBS indicates Phosphate-Buffer Saline control. […]
as §5

SMILES: c1cc(-c2cnn3cc(-c4ccc(OCCN5CCCCC5)cc4)cnc23)ccn1 [Compound C]
protection from FUS1/MK2206-mediated killing [1]: partially protect cancer cells from FUS1/MK2206-mediated killing

IC50 [2]: 18.4 µM | IC50 [3]: 20.4 µM | IC50 [4]: 16.5 µM | IC50 [5]: 2.86 µM
SMILES: NC1(c2ccc(-c3nc4ccn5c(=O)[nH]nc5c4cc3-c3ccccc3)cc2)CCC1 [MK2206]
phosphorylated AKT levels [6]: significantly reduced phosphorylated AKT levels

SMILES: C#Cc1cccc(Nc2ncnc3cc(OCCOC)c(OCCOC)cc23)c1 [Erlotinib]
Colony formation normalized on EV ([7]; listed as EV + 1): 93% | Colony formation normalized on EV ([7]; listed as EV + 2.3): 71% | Colony formation, average ([7]; listed as EV + 1): 2652 | Colony formation, groups 1-3 (replicates) ([7]; listed as EV + 1): 3083 and 2538 and 2334 | Colony formation, average ([7]; listed as EV + 2.3): 2044 | Colony formation, groups 1-3 (replicates) ([7]; listed as EV + 2.3): 2484 and 1910 and 1738 | Colony formation, average ([7]; listed as pc301 + 1): 3203 | Colony formation, groups 1-3 (replicates) ([7]; listed as pc301 + 1): 3779 and 2436 and 3393 | Colony formation, average ([7]; listed as pc301 + 2.3): 1693 | Colony formation, groups 1-3 (replicates) ([7]; listed as pc301 + 2.3): 1625 and 1803 and 1651 | Colony formation normalized on pc301 ([7]; listed as EV + 1): 47% | Colony formation normalized on pc301 ([7]; listed as EV + 2.3): 36% | Colony formation normalized on pc301 ([7]; listed as pc301 + 1): 57% | Colony formation normalized on pc301 ([7]; listed as pc301 + 2.3): 30% | Colony formation normalized on EV ([8]; listed as EV + 1): 97% | Colony formation normalized on EV ([8]; listed as EV + 2.3): 47% | Colony formation, average ([8]; listed as EV + 1): 16866 | Colony formation, groups 1-3 (replicates) ([8]; listed as EV + 1): 18287.0 and 15301.0 and 17010.0 | Colony formation, average ([8]; listed as EV + 2.3): 8142 | Colony formation, groups 1-3 (replicates) ([8]; listed as EV + 2.3): 9216.0 and 8082.0 and 7128.0 | Colony formation, average ([8]; listed as pc301 + 1): 29960 | Colony formation, groups 1-3 (replicates) ([8]; listed as pc301 + 1): 31957.0 and 25107.0 and 32817.0 | Colony formation, average ([8]; listed as pc301 + 2.3): 21288 | Colony formation, groups 1-3 (replicates) ([8]; listed as pc301 + 2.3): 24425.0 and 18192.0 and 21246.0 | Colony formation normalized on pc301 ([8]; listed as EV + 1): 40% | Colony formation normalized on pc301 ([8]; listed as EV + 2.3): 19% | Colony formation normalized on pc301 ([8]; listed as pc301 + 1): 71% | Colony formation normalized on pc301 ([8]; listed as pc301 + 2.3): 50% | Colony formation normalized on EV ([9]; listed as EV + 1): 64% | Colony formation normalized on EV ([9]; listed as EV + 2.3): 40% | Colony formation, average ([9]; listed as EV + 1): 1360 | Colony formation, groups 1-3 (replicates) ([9]; listed as EV + 1): 1216 and 1393 and 1470 | Colony formation, average ([9]; listed as EV + 2.3): 859 | Colony formation, groups 1-3 (replicates) ([9]; listed as EV + 2.3): 750 and 968 and 858 | Colony formation normalized on EV ([10]; listed as EV + 1): 78% | Colony formation normalized on EV ([10]; listed as EV + 2.3): 37% | Colony formation, average ([10]; listed as EV + 1): 38570 | Colony formation, groups 1-3 (replicates) ([10]; listed as EV + 1): 43621 and 36971 and 35119 | Colony formation, average ([10]; listed as EV + 2.3): 18091 | Colony formation, groups 1-3 (replicates) ([10]; listed as EV + 2.3): 20293 and 16469 and 17511 | Colony formation, average ([10]; listed as pc301 + 1): 39180 | Colony formation, groups 1-3 (replicates) ([10]; listed as pc301 + 1): 44761 and 37701 and 35079 | Colony formation, average ([10]; listed as pc301 + 2.3): 28211 | Colony formation, groups 1-3 (replicates) ([10]; listed as pc301 + 2.3): 28610 and 28943 and 27080 | Colony formation normalized on pc301 ([10]; listed as EV + 1): 65% | Colony formation normalized on pc301 ([10]; listed as EV + 2.3): 30% | Colony formation normalized on pc301 ([10]; listed as pc301 + 1): 66% | Colony formation normalized on pc301 ([10]; listed as pc301 + 2.3): 47%
